Results reported in patent US20220363662A1, “COMPOUNDS AS LXR AGONISTS” (Integral Biosciences Privated Limited, priority 2021, published 2022).

Experiments:
[1] = system: THP1; test: Cell viability assay in THP1; format: cell-based; settings: Homo sapiens, THP-1
[2] = system: HCT116; test: Cell viability assay (resazurin) in HCT116; format: cell-based; settings: Homo sapiens, HCT-116; 96 hr exposure
Protocol: (§1) HepG2 (ATCC® HB-8065™), hepatocellular carcinoma, A549 (ATCC® CCL-185™), lung epithelial carcinoma, MCF7 (ATCC® HTB-22™), mammary gland epithelial carcinoma, MDA-MB-231 (ATCC® HTB-26™), TNBC, MiaPaCa-2 (ATCC® CRL-1420™) & Panc-1 (ATCC® CRL-1469™), pancreatic epithelial carcinoma, HCT116 (ATCC® CCL-247™), colon epithelial carcinoma and U87MG (ATCC® HTB-14™), brain epithelial carcinoma cell lines respectively were seeded in the respective medium (DMEM, Cat #10569044 with 10% FBS, Cat #16000044; Gibco for HepG2, A549, MCF7, MDA-MB-231, MiaPaCa-2, Panc-1, HCT116 and MEM, Cat #11095080 with 10% FBS for U87MG). Cells were allowed to grow at 37° C. for 24 hr in 5% CO2 (culture conditions) in a Nuaire incubator (humidified). Serially diluted compounds (100 μl) were added to the culture plate 24 hr later and the cultures were further incubated in culture conditions for 96 hr. Experiment was terminated at the completion of 96 hr exposure to the drug by replacing the medium with 100 μl of 1 mM of resazurin (R7017; Sigma) prepared in culture medium and the plates were further incubated in culture conditions for 4 hr. Fluorescence was then measured using a multimodal plate reader (Biotek Synergy Neo) at an excitation wavelength of 535 nm and emission wavelength of 590 nm to obtain relative fluorescence units. Data analysis was done by subtracting the background fluorescence (only medium blank) value from each reading and then normalizing with the vehicle control (DMSO treated cells) to obtain percent survival/proliferation. Percent survival at different doses was used to calculate IC50 by fitting the curve to the “four-parameter variable slope logistic model” using Prism Graph Pad.

[3] = system: A549; test: Cell viability assay (resazurin) in A549; format: cell-based; settings: Homo sapiens, 96 hr exposure
Protocol: as §1

[4] = system: MDA-MB-231; test: Cell viability assay (resazurin) in MDA-MB-231; format: cell-based; settings: Homo sapiens, 96 hr exposure, read-out: MDA_MB-231 Cell IC50
Protocol: as §1

[5] = molecular target: T1, LXR beta (Homo sapiens, UniProt P55055); test: LXR beta agonist assay (Lanthascreen TR-FRET); format: biochemical; settings: LXR beta-LBD 5 nM, read-out: LXR-β EC50
T1 construct: 5 μL of 4×LXR beta-LBD was added to each well (final concentration 5 nM); purchased Thermofisher PV4658
T1 sequence (P55055 222-460 limits assumed): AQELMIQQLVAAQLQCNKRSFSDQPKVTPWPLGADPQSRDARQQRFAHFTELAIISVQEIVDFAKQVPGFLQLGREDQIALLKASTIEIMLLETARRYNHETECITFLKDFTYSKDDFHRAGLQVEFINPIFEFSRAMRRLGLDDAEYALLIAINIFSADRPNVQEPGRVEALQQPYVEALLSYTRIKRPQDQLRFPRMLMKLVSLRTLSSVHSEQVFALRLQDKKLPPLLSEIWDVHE
How it was run: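 TR-FRET coactivator recruitment: 5 nM LXR beta-LBD with 100 nM Fl-D22 peptide and 10 nM Tb-anti-GST antibody (final) in Coregulator Buffer G, 60 min at 22° C, read hourly up to 4 hours. Duplicate three-fold titrations from 30 μM; EC50 by variable-slope nonlinear regression.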

[6] = system: HepG2; test: Cell viability assay (resazurin) in HepG2; format: cell-based; settings: Homo sapiens, 96 hr exposure
Protocol: as §1

Structure (SMILES): CN(C)C(=O)c1ccc(-c2cncc(C3=CCN(S(=O)(=O)c4ccccc4Cl)CC3)c2)cc1Cl [Compound 1.39, 2-chloro-4-(5-(1-(2-chlorophenylsulfonyl)-1,2,3,6-tetrahydropyridin-4-yl)pyridin-3-yl)-N,N-dimethylbenzamide]
- IC50 [1]: > 30 µM
- IC50 [2]: > 30 µM
- IC50 [3]: > 30 µM
- IC50 [4]: > 30 µM

Structure (SMILES): CC(C)C(O)(C(=O)N1CCC(N2CC[C@H](Nc3ccc(C(=O)N(C)C)c(Cl)c3)C2)CC1)C(F)(F)F (stereo partly drawn) [Compound 1.40, 2-chloro-4-((3S)-1-(1-(2-hydroxy-3-methyl-2-(trifluoromethyl)butanoyl)piperidin-4-yl)pyrrolidin-3-ylamino)-N,N-dimethylbenzamide]
- IC50 [1]: > 30 µM
- IC50 [2]: > 30 µM
- IC50 [3]: > 30 µM
- EC50 [5]: 23.6 µM
- IC50 [4]: > 30 µM

Structure (SMILES): CN(C)C(=O)c1ccc(NC2CN(C3CCN(C(=O)C(C)(C)c4ccccc4)CC3)C2)cc1Cl [Compound 1.41, 2-chloro-N,N-dimethyl-4-(1-(1-(2-methyl-2-phenylpropanoyl)piperidin-4-yl)azetidin-3-ylamino)benzamide]
- IC50 [1]: > 30 µM
- IC50 [2]: > 30 µM
- IC50 [3]: > 30 µM
- EC50 [5]: 5.75 µM
- IC50 [4]: > 30 µM

Structure (SMILES): CN(C)C(=O)c1ccc(NC2CN(C3CCN(C(=O)C4(c5cccc(F)c5)CCC4)CC3)C2)cc1Cl [Compound 1.42, 2-chloro-4-(1-(1-(1-(3-fluorophenyl)cyclobutanecarbonyl)piperidin-4-yl)azetidin-3-ylamino)-N,N-dimethylbenzamide]
- IC50 [1]: > 30 µM
- IC50 [2]: 15.1 µM
- IC50 [3]: > 30 µM
- EC50 [5]: 3.09 µM
- IC50 [4]: 16.1 µM

Structure (SMILES): CN(C)C(=O)c1ccc(NC2CN(C3CCN(C(=O)C4(c5ccccc5)CCC4)CC3)C2)cc1Cl [Compound 1.48, 2-chloro-N,N-dimethyl-4-(1-(1-(1-phenylcyclobutanecarbonyl)piperidin-4-yl)azetidin-3-ylamino)benzamide]
- IC50 [1]: > 30 µM
- IC50 [2]: 12.2 µM
- IC50 [3]: 19.8 µM
- IC50 [4]: > 30 µM

Structure (SMILES): CN(C)C(=O)c1ccc(O[C@@H]2CCN(C3CCN(C(=O)[C@](O)(c4ccccc4)C(F)(F)F)CC3)C2)cc1Cl [Compound 1.72, 2-chloro-N,N-dimethyl-4-((R)-1-(1-((R)-3,3,3-trifluoro-2-hydroxy-2-phenylpropanoyl)piperidin-4-yl)pyrrolidin-3-yloxy)benzamide]
- IC50 [6]: > 30 µM
- EC50 [5]: 5.37 µM

Structure (SMILES): CN(C)C(=O)c1ccc(N2CC3(CCN(C4CCN(C(=O)[C@](O)(c5ccccc5)C(F)(F)F)CC4)CC3)C2)cc1Cl [Compound 1.75, 2-chloro-N,N-dimethyl-4-(7-(1-((R)-3,3,3-trifluoro-2-hydroxy-2-phenylpropanoyl)piperidin-4-yl)-2,7-diazaspiro[3.5]nonan-2-yl)benzamide]
- IC50 [6]: > 30 µM
- EC50 [5]: > 30 µM

Structure (SMILES): CN(C)C(=O)c1ccc(O[C@H]2CCN(C3CCN(C(=O)[C@](O)(c4ccccc4)C(F)(F)F)CC3)C2)cc1Cl [Compound 1.76, 2-chloro-N,N-dimethyl-4-((S)-1-(1-((R)-3,3,3-trifluoro-2-hydroxy-2-phenylpropanoyl)piperidin-4-yl)pyrrolidin-3-yloxy)benzamide]
- IC50 [6]: > 30 µM
- EC50 [5]: > 29.8 µM

Structure (SMILES): CC(C)C(O)(C(=O)N1CCC(N2CCC3(CC2)CN(c2ccc(C(=O)N(C)C)c(Cl)c2)C3)CC1)C(F)(F)F (stereo not drawn) [Compound 1.78, 2-chloro-4-(7-(1-(2-hydroxy-3-methyl-2-(trifluoromethyl)butanoyl)piperidin-4-yl)-2,7-diazaspiro[3.5]nonan-2-yl)-N,N-dimethylbenzamide]
- IC50 [6]: > 30 µM
- EC50 [5]: > 30 µM

Structure (SMILES): CN(C)C(=O)c1ccc(N2CCC(N3CC4(CCN(C(=O)[C@](O)(c5ccccc5)C(F)(F)F)CC4)C3)CC2)cc1Cl [Compound 1.79, 2-chloro-N,N-dimethyl-4-(4-(7-((R)-3,3,3-trifluoro-2-hydroxy-2-phenylpropanoyl)-2,7-diazaspiro[3.5]nonan-2-yl)piperidin-1-yl)benzamide]
- IC50 [6]: 26.6 µM
- EC50 [5]: 4.3 µM
